Several values for one entry are separate records, joined by “and”; a condition that tells them apart may be missing. Identical values can stand only once. Counter-ions that a name gives are not always drawn. One block for each compound: values may come before it.
Key:
Type in all cases: biochemical
porcine pancreatic PLA2 [1] = target: T1, porcine pancreatic PLA2 (Sus scrofa, UniProt P00592); assay: MHPLA2 assay: in vitro porcine pancreatic phospholipase A2, mixed micelle design, [s]=10 μm
T1 construct: purchased Sigma
Summary of the method: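 Compounds dried with 10 μM 1-stearyl-2-[3H]-arachidonyl-PC substrate in mixed micelles (0.1M tris-HCl pH 9.0, 10 mM CaCl2, 10 mM Na taurocholate). Reaction started by adding enzyme and run 15 min at 37°C, then stopped with TCA. Released [3H]-arachidonate separated by TLC or column and counted by scintillation.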

porcine pancreatic PLA2 [2] = target: T1, porcine pancreatic PLA2; assay: SMPLA2 assay: in vitro porcine pancreatic phospholipase A2, mixed micelle design, substrate 100 to 1000 μm
Method: (§1) Phospholipase A2 activity was measured by a radiochemical assay in which labeled synthetic phosphatidylcholine substrate is converted by porcine pancreatic PLA2 to free radiolabeled arachidonate and lyso PC. Radiolabeled arachidonate is extracted from the reaction mixture and separated from unreacted substrate by column chromatography or TLC. Radioactivity (cpm) in samples is quantitated by liquid scintillation counting. Specific details are as follows:
(§2) Labeled substrate(1-stearyl-2-^3 H-arachidonylphosphatidylcholine; Amersham, sp. act. 84 (uCi/mmole, 0.025 to 0.2 uCi/assay tube and unlabeled substrates (Avanti), in sufficient quantity to give 20,000 cpm to 50,000 cpm and 10 μM to 1,000 μM final concentration/assay tube are dried under a stream of nitrogen. The PLA2 and mPLA2 assays utilized a […] substrate concentration. The mHPLA2 and HPLA2 assays (vida infra) utilized a 10 μM substrate concentration and the SmPLA2 assay utilized a substrate concentration ranging from 100 to 1000 μm. The substrate is then redissolved in 0.1M tris-HCl buffer, pH 9.0 containing 10 mM CaCl2 and 10 mM Na taurocholate detergent. The mixture is sonicated in a Kontes Sonifier to yield a homogeneous dispersion. The "mixed" micellar substrate is clear. An aliquot is reserved for a cpm count (total substrate). The total reaction volume is 500 μL; siliconized glassware or plasticware is used throughout. Enzyme (Sigma, sp. act.>690 U/mg protein and preferably 900 U/mg protein) is diluted 1:750 or 1:1000 in 0.1M tris-HCl buffer, pH 9.0 (without Ca^++ and detergent). Enzyme dilution depends on substrate concentration and required enzyme concentration.
(§3) The substrate in buffer is kept on ice until the reaction is started. The reaction is started by adding 10 μL of diluted enzyme solution to 490 μL of micellar substrate solution. Samples are incubated in a 37° C. water bath for 15 minutes with gentle mixing. The reaction is terminated by the addition of 100 μL of 1M fresh trichloroacetic acid (TCA) solution and chilling the tubes on ice for 30 minutes.
(§4) Samples (600 μL) are extracted with 3 ml CHCl3 /MeOH (2:1) for thin layer chromatography or in hexane/ether (9:1) for column chromatography. The phases are separated by gentle centrifugation at 700 rpm×5'. The organic phase is recovered.
(§5) Labeled arachidonate extracted with CHCl3 /MeOH is separated on silica gel G TLC plates (Analtech). Twenty μL of a 2 mg/ml internal standard solution of arachidonic acid (Sigma) is combined with 2-3 ml of the organic phase. The entire mixture is dried under nitrogen and redissolved in 50 μL of CHCl3 /MeOH (2:1). A 20 μL sample is counted in 10 ml of Beckman Redi-solv HP and spotted on silica gel G plates. The solvent system used to develop the plate is CHCl3 /MeOH/13.5N NH3 /H2 O (70:30:4:1). Plates are developed in a glass chamber for 1-11/2 hours, air dried, and the spots visualized in an iodine vapor chamber. Standards of phosphatidylcholine, lyso PC, and arachidonic acid (Sigma) are made as 2 mg/ml stocks in CHCl3 /MeOH (2:1) and spotted on plates. Spots corresponding to arachidonate and phospholipid are scraped and counted in 10 ml Beckman Redi-Solv HP scintillation fluid.
(§6) Samples are extracted with hexane/ether and the upper organic phase recovered. An aliquot is applied to a Silicar CC4 (Malincrodt) column. Columns are prepared using 1 ml of a 1:1 slurry of silicar CC4 in hexane/ether in a Pasteur pipet (approx. 2 cm height). Columns are rinsed with 500 μL of hexane/ether before adding the sample (300-600 μL) to the column. Columns are eluted with a total of 6 ml of hexane/ether. The 6 ml sample is counted in 10 ml of Beckman Redi-Solv HP scintillation fluid.
(§7) or the phospholipase A2 assay, compounds are prepared as 1 mg/ml stock solutions in MeOH and diluted appropriately in PBS. […]

porcine pancreatic PLA2 [3] = target: T1, porcine pancreatic PLA2; assay: PLA2 assay: in vitro porcine pancreatic phospholipase A2, preincubation of drug+enzyme, substrate 2 nM; conditions: preincubation, subs. con. 2; for inhibition at 10 µg/mL: dose 10 μ/ml; for inhibition at 10 µg/mL / inhibition at 20 µg/mL: read-out: % Inh.; for inhibition at 20 µg/mL: dose 20 μ/ml
Summary of the method: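 Porcine pancreatic PLA2 acting on 2 nM radiolabeled arachidonyl-phosphatidylcholine in mixed micelles (0.1 M Tris-HCl pH 9.0, 10 mM CaCl2, 10 mM Na taurocholate), 15 min at 37 °C with preincubation of drug and enzyme. Stopped with TCA; released 3H-arachidonate extracted, separated by TLC or column, counted by scintillation.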

porcine pancreatic PLA2 [4] = target: T1, porcine pancreatic PLA2; assay: MPLA2 assay: in vitro porcine pancreatic phospholipase A2, mixed micelle design, substrate 2 nM; conditions: for inhibition at 10 µg/mL: dose 10 μ/ml; for inhibition at 20 µg/mL: dose 20 μ/ml
Method: as §1, §2, §3, §4, §5, §6, §7

porcine pancreatic PLA2 [5] = target: T1, porcine pancreatic PLA2; assay: HPLA2 assay: in vitro porcine pancreatic phospholipase A2, preincubation design, [s]=10 μm; conditions: dose 10 μ/ml, subs. con. 10
Method: as §1, §2, §3, §4
as §5, with “The solvent system used to develop the plate is CHCl3 /MeOH/13.5N NH3 /H2 O (70:30:4:1).” left out
as §6
or the phospholipase A2 assay, compounds are prepared as 1 mg/ml stock solutions in MeOH and diluted appropriately in PBS.

[6] = dose 25 μ/ml, subs. con. 2, read-out: % Inh.
[7] = subs. con. 2, read-out: % Inh. Avg.

T1 sequence (P00592 23-146): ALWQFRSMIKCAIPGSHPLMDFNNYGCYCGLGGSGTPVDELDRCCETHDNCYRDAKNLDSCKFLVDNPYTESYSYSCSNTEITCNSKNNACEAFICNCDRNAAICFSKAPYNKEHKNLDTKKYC

% Inh. (porcine pancreatic PLA2 [1]; dose 10 μ/ml, subs. con. 10): STIM | % Inh. (porcine pancreatic PLA2 [1]; dose 25 μ/ml, subs. con. 10): STIM | % Inh. (porcine pancreatic PLA2 [2]; dose 10 μ/ml, subs. con. 100): STIM | inhibition at 10 µg/mL (porcine pancreatic PLA2 [2]; dose 10 μ/ml, subs. con. 500): 7% | inhibition at 10 µg/mL (porcine pancreatic PLA2 [2]; dose 10 μ/ml, subs. con. 1000): 22% | % Inh. (porcine pancreatic PLA2 [2]; dose 25 μ/ml, subs. con. 100): STIM | inhibition at 25 µg/mL (porcine pancreatic PLA2 [2]; dose 25 μ/ml, subs. con. 500): 29% | inhibition at 25 µg/mL (porcine pancreatic PLA2 [2]; dose 25 μ/ml, subs. con. 1000): 3% | % Inh. (porcine pancreatic PLA2 [2]; dose 50 μ/ml, subs. con. 100): STIM | % Inh. (porcine pancreatic PLA2 [2]; dose 50 μ/ml, subs. con. 500): STIM | % Inh. (porcine pancreatic PLA2 [2]; dose 50 μ/ml, subs. con. 1000): STIM | inhibition at 10 µg/mL (porcine pancreatic PLA2 [3]): 21% | inhibition at 20 µg/mL (porcine pancreatic PLA2 [3]): 41% | inhibition at 25 µg/mL (porcine pancreatic PLA2 [4]; [6]): 100%
SMILES: CCCCCCCCCCCCCCCCOCC(COP(=O)([O-])OCC[N+](C)(C)C)OP(=O)(O)OCCCCC (single isomer, unassigned; less polar) [3,5,8,10-Tetraoxa-4,9-diphosphapentadecan-1-aminium, 7-[(hexadecyloxy)methyl]-4,9-dihydroxy-N,N,N-trimethyl-, hydroxide, 4-(inner salt), 4,9-dioxide, less polar isomer]

% Inh. (porcine pancreatic PLA2 [5]): STIM
SMILES: CCCCCCCCCCCCCCCCOCC(COP(=O)([O-])OCC[N+](C)(C)C)OP(=O)(O)OCCCCCCCCCCCCCCCC (centres unmarked) [3,5,8,10-Tetraoxa-4,9-diphosphahexacosan-1-aminium, 7-[(hexa] [3,5,8,10-Tetraoxa-4,9-diphosphahexacosan-1-aminium, 7-[(hexadecyloxy)methyl]-4,9-dihydroxy-N,N,N-trimethyl-hydroxide, 4-(inner salt), 4,9-dioxide]

SMILES: CCCCCCCCCCCCCCCCOCC(COP(=O)([O-])OCC[N+](C)(C)C)CC(N)CCCCCCCCCCCCCCCC (centres unmarked) [7-(2-Aminooctadecyl)-4-hydroxy-N,N,N-trimethyl-3,5,9-trioxa-4-phosphapentacosanaminium, hydroxide, inner salt, 4-oxide]
% Inh. (porcine pancreatic PLA2 [1]; dose 10 μ/ml, subs. con. 10): 59% | inhibition at 10 µg/mL (porcine pancreatic PLA2 [1]; dose 10 μ/ml, subs. con. 10, read-out: % Inh. Avg.): 70% | inhibition at 20 µg/mL (porcine pancreatic PLA2 [1]; dose 20 μ/ml, subs. con. 10): 97% | inhibition at 25 µg/mL (porcine pancreatic PLA2 [1]; dose 25 μ/ml, subs. con. 10, read-out: % Inh.): 78% | inhibition at 25 µg/mL (porcine pancreatic PLA2 [1]; dose 25 μ/ml, subs. con. 10, read-out: % Inh. Avg.): 77% | IC50 (porcine pancreatic PLA2 [1]; subs. con. 10, read-out: IC50 (converted)): 1.91 µM and 7.09 µM and 8.73 µM | IC50 (porcine pancreatic PLA2 [1]; subs. con. 10, read-out: IC50 Avg. (converted)): 5.87 µM | % Inh. Avg. (porcine pancreatic PLA2 [2]; dose 25 μ/ml, subs. con. 100): 61% | inhibition at 25 µg/mL (porcine pancreatic PLA2 [2]; dose 25 μ/ml, subs. con. 100): 63% | IC50 (porcine pancreatic PLA2 [2]; subs. con. 100, read-out: IC50 (converted)): 20.6 µM and 34.1 µM | IC50 (porcine pancreatic PLA2 [2]; subs. con. 100, read-out: IC50 Avg. (converted)): 27.3 µM | inhibition at 10 µg/mL (porcine pancreatic PLA2 [3]): 95% | inhibition at 20 µg/mL (porcine pancreatic PLA2 [3]): 95% | IC50 (porcine pancreatic PLA2 [3]; read-out: IC50 (converted)): 0.682 µM | inhibition at 10 µg/mL (porcine pancreatic PLA2 [4]; subs. con. 2, read-out: % Inh.): 34% | inhibition at 10 µg/mL (porcine pancreatic PLA2 [4]; [7]): 65% | inhibition at 20 µg/mL (porcine pancreatic PLA2 [4]; subs. con. 2, read-out: % Inh.): 72% | inhibition at 20 µg/mL (porcine pancreatic PLA2 [4]; [7]): 85% | % Inh. (porcine pancreatic PLA2 [4]; dose 25 μ/ml, subs. con. 2): STIM | inhibition at 25 µg/mL (porcine pancreatic PLA2 [4]; [6]): 92%

From patent US5208223A, “Phosphocholine derivative inhibitors of phospholipase A2” (American Cyanamid Company, priority 1992, dated 1993)
